These results are taken from ChEMBL document CHEMBL1201862, “PubChem BioAssay data set” (2004).

In one test the test system is Streptococcus. Nature of the test: GAS UMAA2166 growth inhibition – luminescence, BacTiterGlo, counter-screen for streptokinase expression inhibitor project, dose response (AID 1915).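 Note: potency for reduction of bacterial viability or growth.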 The format is functional, organism-based. The following applies: Streptococcus. (In general: A counterscreen serves to expose hits that act by an unwanted route or on another target.)

A short description of test [1]: viability loss in HepG2 hepatoma cells – cell-based, ATP luminescence, cherry-pick, activator set 2, cytotoxicity control, dose response (AID 1053143). The format is functional.
The target in the next test is T1, Streptokinase A (Streptococcus pyogenes serotype M1, UniProt P10520).
T1 sequence (P10520 whole entry): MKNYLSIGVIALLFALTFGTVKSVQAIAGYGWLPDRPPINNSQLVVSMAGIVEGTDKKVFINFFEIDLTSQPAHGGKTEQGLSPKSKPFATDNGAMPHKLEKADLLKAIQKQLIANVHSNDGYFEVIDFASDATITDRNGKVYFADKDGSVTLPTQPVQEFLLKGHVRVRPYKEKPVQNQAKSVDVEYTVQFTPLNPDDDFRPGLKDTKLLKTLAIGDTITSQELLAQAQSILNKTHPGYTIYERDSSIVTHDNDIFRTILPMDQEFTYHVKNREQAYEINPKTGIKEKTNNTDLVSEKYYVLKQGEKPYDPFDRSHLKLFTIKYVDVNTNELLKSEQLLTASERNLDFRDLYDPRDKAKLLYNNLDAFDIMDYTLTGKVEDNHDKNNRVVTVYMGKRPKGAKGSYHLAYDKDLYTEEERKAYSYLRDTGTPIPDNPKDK
In words: viability-normalized secreted streptokinase activity reduction – plasminogen activation absorbance, OD405, dose response (AID 1914).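 Note: secreted streptokinase activity via plasminogen activation per viability signal from cell pellet.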 The format is functional, Streptococcus pyogenes M1 GAS.

Test [2] concerns the target T2, Methionyl-tRNA synthetase, putative (Trypanosoma brucei brucei, UniProt Q38C91).
T2 sequence (Q38C91 whole entry): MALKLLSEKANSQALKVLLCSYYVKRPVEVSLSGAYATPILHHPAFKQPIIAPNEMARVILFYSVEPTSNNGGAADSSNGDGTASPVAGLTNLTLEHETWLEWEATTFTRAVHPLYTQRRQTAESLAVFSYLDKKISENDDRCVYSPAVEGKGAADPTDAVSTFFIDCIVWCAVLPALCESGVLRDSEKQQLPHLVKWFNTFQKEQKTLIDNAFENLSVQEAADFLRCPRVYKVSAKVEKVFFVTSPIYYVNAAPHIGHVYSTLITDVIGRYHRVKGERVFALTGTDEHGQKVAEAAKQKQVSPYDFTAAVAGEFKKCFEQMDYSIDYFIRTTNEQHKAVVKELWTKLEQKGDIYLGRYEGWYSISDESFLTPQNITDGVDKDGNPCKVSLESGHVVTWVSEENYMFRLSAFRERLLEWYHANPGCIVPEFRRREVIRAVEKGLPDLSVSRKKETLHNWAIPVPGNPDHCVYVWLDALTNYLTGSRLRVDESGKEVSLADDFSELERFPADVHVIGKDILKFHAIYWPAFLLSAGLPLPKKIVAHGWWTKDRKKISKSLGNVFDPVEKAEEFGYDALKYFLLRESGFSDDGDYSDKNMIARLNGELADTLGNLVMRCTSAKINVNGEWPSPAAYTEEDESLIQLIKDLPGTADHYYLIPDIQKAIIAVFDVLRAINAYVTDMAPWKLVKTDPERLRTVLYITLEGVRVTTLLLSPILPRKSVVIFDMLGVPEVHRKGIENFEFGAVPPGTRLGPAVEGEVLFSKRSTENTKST
Format: functional, Trypanosoma brucei brucei strain 927/4 GUTat10.1.

In test [3] the target is T3, Replicative DNA helicase DnaB (Mycobacterium tuberculosis, UniProt P9WMR3).
T3 sequence (P9WMR3 whole entry): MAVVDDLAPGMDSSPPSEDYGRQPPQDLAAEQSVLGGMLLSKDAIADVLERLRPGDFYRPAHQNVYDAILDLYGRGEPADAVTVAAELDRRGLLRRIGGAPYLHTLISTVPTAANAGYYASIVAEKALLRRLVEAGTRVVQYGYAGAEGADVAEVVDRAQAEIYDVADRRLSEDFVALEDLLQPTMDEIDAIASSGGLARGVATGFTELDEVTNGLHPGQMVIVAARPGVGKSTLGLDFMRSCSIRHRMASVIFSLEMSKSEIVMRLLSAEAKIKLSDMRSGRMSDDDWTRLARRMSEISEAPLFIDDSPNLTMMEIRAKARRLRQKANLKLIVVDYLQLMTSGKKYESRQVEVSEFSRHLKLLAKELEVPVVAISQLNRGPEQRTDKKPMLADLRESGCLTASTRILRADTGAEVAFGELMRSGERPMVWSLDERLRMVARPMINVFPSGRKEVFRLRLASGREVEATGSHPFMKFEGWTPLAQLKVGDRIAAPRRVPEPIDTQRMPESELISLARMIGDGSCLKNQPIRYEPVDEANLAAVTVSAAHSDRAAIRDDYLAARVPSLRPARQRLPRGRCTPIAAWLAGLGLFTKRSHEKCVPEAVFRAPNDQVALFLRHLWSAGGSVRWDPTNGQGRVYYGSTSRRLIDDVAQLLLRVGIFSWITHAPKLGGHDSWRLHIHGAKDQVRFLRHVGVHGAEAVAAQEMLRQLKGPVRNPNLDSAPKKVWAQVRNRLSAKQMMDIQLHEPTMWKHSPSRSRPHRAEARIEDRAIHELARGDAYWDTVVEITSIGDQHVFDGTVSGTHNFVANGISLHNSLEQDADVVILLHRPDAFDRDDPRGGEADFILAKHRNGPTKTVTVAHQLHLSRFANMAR
In words: DnaB intein splicing inhibitors, dose response, biochemical, cell-free fluorescence (AID 449749). Format: functional.

Test [4] in a line: Counterscreen for inhibitors of Trypanosoma brucei methionyl tRNA synthetase (MetRS): Luminescence-based cell-based high throughput dose response assay to identify compounds that are cytotoxic to Jurkat human T lymphocyte cells. Format: functional.
For test [5], the target named is T2, Methionyl-tRNA synthetase, putative. The format is functional, Trypanosoma brucei brucei strain 927/4 GUTat10.1. This is another data set of the same source.
The test system of test [6] is Streptococcus sp. 'group A'. Nature of the test: Streptococcus pyogenes SK(-)GAS viability under kanamycin – luminescence, BacTiterGlo, confirmation, counter-screen for streptokinase expression inhibitor project, dose response (AID 1900). The format is functional, organism-based. The following applies: Streptococcus sp. 'group A'.
The next test deals with T4, Protein RecA (Mycobacterium tuberculosis, UniProt P9WHJ3).
T4 sequence (P9WHJ3 whole entry): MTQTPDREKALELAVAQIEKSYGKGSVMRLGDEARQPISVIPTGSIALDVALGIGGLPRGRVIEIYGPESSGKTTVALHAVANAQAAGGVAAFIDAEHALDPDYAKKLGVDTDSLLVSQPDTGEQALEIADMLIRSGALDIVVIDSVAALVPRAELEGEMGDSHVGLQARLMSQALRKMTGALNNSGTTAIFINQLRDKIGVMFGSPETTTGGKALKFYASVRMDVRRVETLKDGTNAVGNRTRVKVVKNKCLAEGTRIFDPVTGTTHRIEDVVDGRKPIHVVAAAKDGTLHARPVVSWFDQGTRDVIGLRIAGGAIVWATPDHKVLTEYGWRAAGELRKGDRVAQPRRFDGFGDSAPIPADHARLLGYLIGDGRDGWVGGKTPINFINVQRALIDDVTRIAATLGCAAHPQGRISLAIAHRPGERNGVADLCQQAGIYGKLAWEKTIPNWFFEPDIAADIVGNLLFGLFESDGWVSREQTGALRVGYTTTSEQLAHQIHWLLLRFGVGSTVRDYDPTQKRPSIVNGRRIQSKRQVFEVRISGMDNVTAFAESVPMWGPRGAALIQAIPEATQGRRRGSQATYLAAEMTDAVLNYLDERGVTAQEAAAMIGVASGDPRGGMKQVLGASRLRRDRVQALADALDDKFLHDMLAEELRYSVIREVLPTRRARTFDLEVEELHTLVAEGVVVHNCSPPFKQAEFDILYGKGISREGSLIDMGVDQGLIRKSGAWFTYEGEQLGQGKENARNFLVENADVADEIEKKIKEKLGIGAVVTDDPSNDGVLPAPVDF
In words: Fluorescence Cell-Free Homogeneous Dose Retest to Identify Inhibitors of RecA-Intein Splicing Activity. [Related pubchem assays (depositor defined):AID2097, AID2223, AID489010, AID492950]. Format: functional.

The next test relates to Vero. In words: cells. The following applies: Chlorocebus sabaeus. The format is functional.
For test [7], the target named is T5, Oxysterols receptor LXR-beta (Homo sapiens, UniProt P55055).
T5 sequence (P55055 whole entry): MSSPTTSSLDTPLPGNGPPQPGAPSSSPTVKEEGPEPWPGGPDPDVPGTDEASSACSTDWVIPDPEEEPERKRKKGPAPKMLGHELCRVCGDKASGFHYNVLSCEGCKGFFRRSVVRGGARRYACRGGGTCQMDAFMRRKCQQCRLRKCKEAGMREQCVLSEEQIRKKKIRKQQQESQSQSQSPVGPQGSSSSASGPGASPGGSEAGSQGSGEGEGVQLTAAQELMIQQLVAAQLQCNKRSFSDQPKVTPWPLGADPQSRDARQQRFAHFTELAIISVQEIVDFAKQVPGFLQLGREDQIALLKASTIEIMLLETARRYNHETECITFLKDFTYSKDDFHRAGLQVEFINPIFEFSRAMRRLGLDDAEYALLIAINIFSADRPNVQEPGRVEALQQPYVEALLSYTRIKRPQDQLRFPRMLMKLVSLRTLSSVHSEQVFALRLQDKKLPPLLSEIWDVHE
In words: LXR agonists, Gal4 luciferase reporter, dose response, counter-screen for ssDAF-12 agonist project, cell-based, luminescence, HEK293, S. stercoralis campaign (AID 720737). The following applies: read-out: IC50 (the source's name). The format is functional. On the technique in general: In a reporter assay the amount or activity of a reporter protein is the signal.

Test [8] can be described thus: Luminescence-based cell-based high throughput dose response assay to identify activators of the DAF-12 from the parasite S. stercoralis (ssDAF-12). Format: functional.
The target in test [9] is 1-phosphatidylinositol 4,5-bisphosphate phosphodiesterase beta-3 (Homo sapiens, UniProt Q01970). In words: Fluorescence-based biochemical high throughput dose response assay to identify inhibitors of phospholipase C isozymes (PLC-B3).
1-phosphatidylinositol 4,5-bisphosphate phosphodiesterase beta-3, sequence (Q01970 whole entry): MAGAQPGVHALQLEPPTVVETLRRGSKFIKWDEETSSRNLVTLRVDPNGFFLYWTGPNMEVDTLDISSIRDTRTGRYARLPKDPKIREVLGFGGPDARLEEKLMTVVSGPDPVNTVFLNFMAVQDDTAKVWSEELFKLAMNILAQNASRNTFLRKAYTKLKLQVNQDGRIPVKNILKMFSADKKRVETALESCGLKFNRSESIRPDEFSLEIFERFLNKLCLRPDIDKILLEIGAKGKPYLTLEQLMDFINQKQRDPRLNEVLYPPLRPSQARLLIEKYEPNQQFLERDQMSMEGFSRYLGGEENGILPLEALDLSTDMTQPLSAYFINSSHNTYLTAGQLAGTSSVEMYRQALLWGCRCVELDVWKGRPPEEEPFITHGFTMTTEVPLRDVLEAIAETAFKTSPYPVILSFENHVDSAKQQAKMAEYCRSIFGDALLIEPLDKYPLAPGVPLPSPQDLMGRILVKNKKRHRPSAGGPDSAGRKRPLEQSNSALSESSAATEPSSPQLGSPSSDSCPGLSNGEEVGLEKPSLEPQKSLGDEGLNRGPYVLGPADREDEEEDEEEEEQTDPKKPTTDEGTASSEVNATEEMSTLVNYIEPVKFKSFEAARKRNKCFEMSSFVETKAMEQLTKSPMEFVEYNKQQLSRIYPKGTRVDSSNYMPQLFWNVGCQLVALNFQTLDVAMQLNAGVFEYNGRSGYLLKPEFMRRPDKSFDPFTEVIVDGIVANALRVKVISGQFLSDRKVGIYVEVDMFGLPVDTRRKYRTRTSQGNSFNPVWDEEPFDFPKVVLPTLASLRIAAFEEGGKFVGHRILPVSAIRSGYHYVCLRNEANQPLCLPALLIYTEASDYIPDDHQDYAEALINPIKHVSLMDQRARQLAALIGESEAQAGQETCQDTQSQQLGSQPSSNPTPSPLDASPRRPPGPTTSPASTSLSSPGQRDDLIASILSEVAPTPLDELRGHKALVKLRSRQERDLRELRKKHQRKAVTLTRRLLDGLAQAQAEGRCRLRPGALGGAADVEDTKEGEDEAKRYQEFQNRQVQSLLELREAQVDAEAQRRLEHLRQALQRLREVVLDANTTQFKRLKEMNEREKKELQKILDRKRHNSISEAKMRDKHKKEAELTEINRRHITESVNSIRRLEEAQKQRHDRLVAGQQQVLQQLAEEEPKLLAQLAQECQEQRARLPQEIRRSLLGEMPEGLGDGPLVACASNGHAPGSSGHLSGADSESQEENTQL
In test [10] the target is 1-phosphatidylinositol 4,5-bisphosphate phosphodiesterase gamma-1 (Homo sapiens, UniProt P19174). In words: Counterscreen for inhibitors of phospholipase C isozymes (PLC-B3): Fluorescence-based biochemical high throughput dose response assay to identify inhibitors of phospholipase C isozymes (PLC-gamma1).
1-phosphatidylinositol 4,5-bisphosphate phosphodiesterase gamma-1, sequence (P19174 whole entry): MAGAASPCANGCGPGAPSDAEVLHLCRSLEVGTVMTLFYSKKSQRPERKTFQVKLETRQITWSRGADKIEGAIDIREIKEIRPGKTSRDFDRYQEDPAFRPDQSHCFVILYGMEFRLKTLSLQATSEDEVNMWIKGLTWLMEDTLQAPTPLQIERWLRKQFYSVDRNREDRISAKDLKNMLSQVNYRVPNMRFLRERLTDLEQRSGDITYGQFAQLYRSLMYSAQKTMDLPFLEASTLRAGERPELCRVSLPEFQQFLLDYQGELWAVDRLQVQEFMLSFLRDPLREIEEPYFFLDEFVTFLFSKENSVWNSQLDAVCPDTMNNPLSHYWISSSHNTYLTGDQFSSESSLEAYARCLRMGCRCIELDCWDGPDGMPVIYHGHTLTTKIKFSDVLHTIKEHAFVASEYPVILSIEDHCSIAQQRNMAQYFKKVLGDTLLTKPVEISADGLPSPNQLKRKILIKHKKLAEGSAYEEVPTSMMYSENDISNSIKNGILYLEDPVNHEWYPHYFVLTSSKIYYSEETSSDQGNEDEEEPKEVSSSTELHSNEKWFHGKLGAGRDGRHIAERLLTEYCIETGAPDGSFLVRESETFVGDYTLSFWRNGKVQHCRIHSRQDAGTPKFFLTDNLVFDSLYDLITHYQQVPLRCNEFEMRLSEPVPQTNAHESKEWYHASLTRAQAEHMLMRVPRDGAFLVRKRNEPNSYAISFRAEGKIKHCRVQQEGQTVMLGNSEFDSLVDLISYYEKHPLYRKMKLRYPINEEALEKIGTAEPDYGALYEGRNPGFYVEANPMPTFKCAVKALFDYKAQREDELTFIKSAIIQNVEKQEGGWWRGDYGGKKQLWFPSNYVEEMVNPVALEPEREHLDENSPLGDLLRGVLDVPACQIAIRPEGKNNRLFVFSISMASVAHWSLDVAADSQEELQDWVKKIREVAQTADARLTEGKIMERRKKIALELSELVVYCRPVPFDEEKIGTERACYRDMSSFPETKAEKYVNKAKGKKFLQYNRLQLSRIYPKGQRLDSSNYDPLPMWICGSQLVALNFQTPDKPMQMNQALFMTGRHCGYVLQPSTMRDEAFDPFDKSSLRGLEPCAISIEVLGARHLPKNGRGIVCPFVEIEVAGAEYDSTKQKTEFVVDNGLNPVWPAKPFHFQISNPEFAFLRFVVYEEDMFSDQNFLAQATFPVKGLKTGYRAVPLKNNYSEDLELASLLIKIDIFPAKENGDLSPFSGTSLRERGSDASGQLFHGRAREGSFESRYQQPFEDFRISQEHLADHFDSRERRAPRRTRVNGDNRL
Test [11] in a line: HEK293 Cytotoxicity Assay Measured in Cell-Based System Using Plate Reader - 7071-01_Inhibitor_Dose_CherryPick_Activity_Set2. Format: functional.
The next test concerns HEK293. Nature of the test: viability loss in HEK293T cells – cell-based, ATP luminescence, cherry-pick samples, cytotoxicity control, dose response (AID 687005).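 Note: cells exposed to compound for 48 hours.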 The format is functional. Conditions: Homo sapiens.
Another test deals with HeLa. In words: viability loss in HeLa cells – cell-based, ATP luminescence, cherry-pick samples, cytotoxicity control, dose response (AID 687004). Format: functional. The following applies: Homo sapiens.

Each structure is given as a SMILES string. Activity calls are given as the source filed them.

As a reminder, the AC50 is the concentration at which the activity in the assay is half-maximal. In general, IC50 refers to the concentration that inhibits the measured activity by half. By CC50 is commonly meant the concentration giving 50% cytotoxicity. Regarding `Cc1[nH]c2ccccc2c1/C=N/Nc1nc2ccccc2[nH]1`, the EC50 in the test with Streptococcus was 9.86 µM (active); at Streptokinase A, > 150 µM (not active); in [6] it was 7.74 µM (active); on Protein RecA, 39.3 µM (active). The AC50 in [1] is 26 µM (active); in test [3] it was > 380 µM (inactive). The IC50 was 36.9 µM (inactive) in test [2], 36.2 µM (inactive) in test [4] and 17.1 µM (inactive) in [5]. Moreover, the CC50 in the test on Vero was > 25 µM (active).

Take `Cc1ccc2nsnc2c1NC(=O)c1cccnc1Cl`: the EC50 in [7] is > 67.5 µM (inactive). Moreover, the IC50 in test [8] is > 67.5 µM (inactive).

Consider `Cc1ccccc1C(=O)NC1CCN(Cc2nnnn2C2CCCC2)CC1`, for which the IC50 in test [9] and in test [10] was > 122 µM (inactive) each time.

As for `O=C(CN1CCOCC1)N[C@@H]1CC[C@@H](CCNC(=O)C2CCC2)O[C@@H]1CO`, the AC50 (in test [11]; in the test with HEK293) was 14.8 µM (active) throughout.

For `CC(C)(C)c1ccc(OCC(=O)NC(c2ccccc2)c2ccccc2)cc1`, the AC50 in [11] is 3.2 µM (active); in the test with HeLa, > 70 µM (inactive); in the test on HEK293, 3.2 µM (active).

On to `O=Cc1cc(N=Nc2ccc(S(=O)(=O)O)cc2)ccc1O`, for which the IC50 was > 122 µM (inactive) in [9] and 39.3 µM (inactive) in test [10].
